Data taken from PubChem BioAssay AID179 (DTP/NCI, 2004).
Calls of active or inactive are those of the source.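 How the source made its calls: active means compounds giving half or more protection of infected cells from virus-caused growth loss, again on retest; inactive means the rest.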

Tested on: CEM cells HIV-1 protection, formazan growth assay
Experiment: NCI AIDS Antiviral Assay
Conditions: for IC50: measured here: growth of uninfected CEM cells
Summary of the method: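 Steps: treat uninfected and HIV-1-infected human CEM cells at five drug levels; quantify growth by soluble formazan; retest any compound reaching 50% protection; classify actives from the retest.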

| SMILES | EC50 [µM] | IC50 [µM] | outcome |
| --- | --- | --- | --- |
| O=C1C[C@@H]2[C@@H](c3ccccc3)[C@@H]3C(=O)c4ccccc4NC(=O)[C@H]3[C@]2(O)c2ccccc2N1 | 26.9 | 30.9 |  |
| CC1C2C=CC1C(c1c3ccc(=O)cc-3oc3cc(O)ccc13)C2C(=O)O (stereo unspecified) | 2.4 | 51.3 |  |
| CC(=O)NCCSSCCCCSSCCNC(C)=O | > 200 | 95.5 |  |
| Cc1nc(N)nc2c1CCC(=O)N2 | > 56.2 | > 56.2 |  |
| Cn1c(=O)c2c(nc3sc4nc5ccccc5nc4n32)n(C)c1=O | > 200 | > 200 |  |
| Cc1ccc(S(=O)(=O)OC2C(O)C(O)OC2C(c2cc(O)c3c(c2O)C(=O)c2ccccc2C3=O)c2cc(O)c3c(c2O)C(=O)c2ccccc2C3=O)cc1 (stereo unspecified) | > 200 | 14.5 |  |
| COC(=O)CCC=C(c1cc(Cl)c(OC)c(C(=O)OC)c1)c1cc(Cl)c(OC)c(C(=O)OC)c1 | > 200 | 44.7 |  |
| C=CCO/N=C(\OC(=O)c1ccc([N+](=O)[O-])cc1)c1ccccc1 | > 151 | > 151 |  |
| CCSC(=O)C1(C)OC2CCCCC2C1=O (stereo unspecified) |  |  | inactive |
| C=C1CC(Cn2cc(Br)c(=O)[nH]c2=O)(c2ccc(-c3ccccc3)cc2)OC1=O (stereo unspecified) | > 20 | 0.457 |  |
| CC1Cn2c(nc3ccccc32)NC1=O (stereo unspecified) | > 200 | > 200 |  |
| C[C@H]1OCN2C(=O)c3ccccc3SC(=O)[C@H]12 | > 200 | > 200 |  |
| OCCN1CCN(CCCN2c3ccccc3Sc3ccc(Cl)cc32)CC1 | > 200 | 10 |  |
| CCOC(=O)C1N(S(=O)(=O)c2ccc(C)cc2)CCC12c1ccccc1N(C(C)=O)C2C(/C=C/C(=O)OC)=C/C(=O)OC (stereo unspecified) |  |  | inactive |
| N/N=c1\c2ccccc2c2cc3c(cc12)/c(=N/N)c1ccccc13 | > 17 | > 17 |  |
| COC(=O)/C=C(/Sc1nc(Cl)c(Cl)nc1N)C(=O)OC (tested in a mixture with another compound) | > 200 | 2.45 |  |
| COC(=O)[C@@H]1C[C@H]2[C@H](c3ccccc3Br)[C@@H](OC(C)=O)[C@@H](OCc3ccccc3)ON2O1 | > 200 | > 200 |  |
| CCOC(=O)C1=C(C(=O)OCC)C2c3ccccc3C=CN2C(C(=O)OCC)=C(SC)S1 (stereo unspecified) | > 7.94 | > 7.94 |  |
| O=S(Nc1ccccc1)c1ccc(N2CCOCC2)cc1 (stereo unspecified) | > 200 | 18.2 |  |
| Nc1nc2cc(CNc3ccc(C(=O)NC(CCC(=O)O)C(=O)O)cc3)ccc2nc1-c1ccccc1 (stereo unspecified) | > 200 | 12.3 |  |
| Cc1c(Cc2ccccc2)n(C(C)OCCN2C(=O)C=CC2=O)c(=O)[nH]c1=O (stereo unspecified) | > 200 | 9.77 |  |

| SMILES | EC50 [µM] | IC50 [µM] | outcome |
| --- | --- | --- | --- |
| O=[N+]([O-])/C(Cl)=C(/C(Cl)=C(Cl)Cl)N1CCCCC1 | > 200 | 12.3 |  |
| CCCCCCCCO/N=C\c1c2c(O)c3c(O)c(C)c4c(c3c1O)C(=O)C(C)(O/C=C\C(OC)C(C)C(OC(C)=O)C(C)C(O)C(C)C(O)C(C)/C=C\C=C(\C)C(=O)N2)O4 (stereo unspecified) | > 200 | 3.89 |  |
| Cc1ccc(O)c(C(c2ccc(C(c3cc(C)ccc3O)c3cc(C)ccc3O)cc2)c2cc(C)ccc2O)c1 | > 20 | 3.09 |  |
| Cn1cnc2c(sc3nc4ccccc4n32)c1=N | > 200 | > 200 |  |
| COC(=O)C(C(=O)C(=O)Nc1nc(=S)[nH][nH]1)c1csc(N)n1 (stereo unspecified) | > 724 | > 724 |  |
| O=C1C=C(Nc2ccc(S(=O)(=O)Nc3ncccn3)cc2)c2ccccc2C1=O | > 447 | 67.6 |  |
| COc1cc(-c2cc(OC)c(OC)c3ccc(Br)cc23)c2cc(Br)ccc2c1OC | > 200 | 102 |  |
| CS(=O)(=O)CS(C)(=O)=O | > 200 | > 200 |  |
| Cc1ccc(S(=O)(=O)N2CCN(C=S)CC2)cc1 | > 91.2 | > 91.2 |  |
| Cc1cc(C)c2c(c1)CC1(Cc3cc(C)c(C)cc3C1=O)C2=O (stereo unspecified) | > 100 | > 100 |  |
| CC1(C)C(=O)C(C)(C)C1O | > 1780 | > 1780 |  |
| CSC1=NN(C)C2(CCCCC2)C(=O)N1 | 13.8 | 575 |  |
| NC(=O)CNC(=O)c1ccc(NC(=O)c2ccccc2SC(=O)CCCC[n+]2ccccc2)cc1 | 15.8 | 50.1 |  |
| C[N+](C)(C)CCCC#CC[N+]1(C)CCOCC1 |  |  | inactive |
| O=C1C(c2ccccc2)C2C=CC(C2)N1O (stereo unspecified) | > 200 | > 200 |  |
| CN1C(=O)N/C(=C\c2ccc(S(=O)(=O)N/N=C/c3ccccc3)cc2)C1=O | > 200 | 5.25 |  |
| Cc1nc2ccc(C(F)(F)F)cc2nc1Nc1ccc(Cl)c(Cl)c1 | > 17.8 | 11.5 |  |
| COC1/C=C/OC2(C)Oc3c(C)c(O)c4c(O)c(c(C=NN5CCCCCCCCCCCCCCC5)c(O)c4c3C2=O)NC(=O)/C(C)=C/C=C/C(C)C(O)C(C)C(O)C(C)C(OC(C)=O)C1C (stereo unspecified) | > 200 | 3.98 |  |
| CCN(CC)c1ccc(N=Cc2cc(=O)n(C)c3ccccc23)cc1 | > 200 | 3.72 |  |
| CC(C)(C)[Si](C)(C)OCC1OC(n2cnc3c(=O)[nH]c(N)nc32)C(O[Si](C)(C)C(C)(C)C)C1O[Si](C)(C)C(C)(C)C (stereo unspecified) | > 200 | 4.17 |  |
| CC(C)N(C(=O)C12C3C4C1(I)C1C2C3(I)C41C(=O)N(C(C)C)C(C)C)C(C)C (stereo unspecified) | > 8.51 | > 8.51 |  |
